Measured values from patent publication US4844894A, “Method of inhibiting the onset of septicemia and endotoxemia” (priority 1986, dated 1989).

Experiments:
chick embryos = assay: Chick embryo 50% lethal dose assay (CELD50); assay type: in vivo
Experimental: A sensitive measure of endotoxin toxicity is the chick embryo 50% lethal dose assay (CELD50). In this test, chick embryos at 10 days of age are injected with varying doses of the material to be tested. […] Using the chick embryo test, a comparison was made of the toxicity of radiation-detoxified endotoxin with the parent endotoxin as well as with MPL.

Phosphorous content = assay type: physicochemical; settings: Percent by weight
septicemia = assay: Nonspecific resistance to septicemia induced in mice by cecal ligation and puncture; assay type: in vivo, NMRI mice; settings: 1 μg, ip, 24 hr prior surgery
Experimental: 14 NMRI mice were pretreated with one microgram of MPL administered by intraperitoneal injection. 24 hours later each of the mice underwent surgery wherein the cecum of each mouse was ligated and punctured to internally expose the mice to microorganisms capable of instigating the onset of septicemia. […] A second group of mice were subjected to surgery in precisely the same way without pretreatment with MPL.

[1] = test system: endotoxin (E. coli 0111:B 4); assay: Non-septic endotoxemia: endotoxin (E. coli 0111:B4) challenge ip in mice; assay type: in vivo; settings: 100 ug MPL ip day 0
Experimental: (§1) A model for non-septic endotoxemia is to inject mice intraperitoneally (ip) with endotoxin. […] Depending on the dose, death may occur within about 72 hours. The LD50 can be determined by injecting groups of mice with different doses of endotoxin, and noting the number of survivors in each group. The protective effect of a given treatment is evidenced by an increase in the LD50 of the endotoxin challenge.
(§2) In this embodiment, mice were injected ip on day 0 with either 100 ug MPL in 0.25 ml saline (treatment group) or else saline alone (control group). On day 3, mice in both groups received an ip injection containing one of several different doses of endotoxin (E. coli 0111:B 4). There were 8 mice at each endotoxin dose level. The doses for the control group were […] endotoxin. The doses for treatment group were 0.75, 1.00, 1.25, 1.50, 2.0, and 2.5 mg endotoxin. […] The LD50 for each group was calculated using the method of Reed and Meuench (ibid.). […] Since only 2 mice dies at the highest endotoxin dose in the treatment group, the LD50 the LD50 could not be calculated for this group. It is evident, however, that it would be well above 2.5 mg, probably around 5-6 mg. This would correspond to at least a 4 to 5 fold increase in the LD50 following treatment with MPL.

[2] = test system: endotoxin from E. coli K235; assay: Non-septic endotoxemia: endotoxin from E. coli K235 challenge ip in mice; assay type: in vivo; settings: pre-treated with 100 ug MPL
Experimental: as §1, §2
In another experiment the LD50 's for both the control and the treatment groups were successfully determined. The experimental design was essentially the same as that described above except that the endotoxin used was obtained from E. coli K235.

E. coli 055B5 [3] = assay: Septic endotoxemia: challenge with 5 LD50's of live E. coli 055B5 in mice; assay type: in vivo; settings: 50 ug MPL ip on days 0 and 1; challenge on day 2
Experimental: (§3) Injection of mice ip with live E. coli provides a good model of gram-negative sepsis and associated endotoxemia, since E. coli readily sheds endotoxin. In this model, a known quantity of live E. coli are injected, and the survivors are counted for an appropriate number of days. The effectiveness of a treatment is evidenced by an increase in the survivorship for a treated group.
In the experiment, 10 mice were given ip injections of 50 ug MPL on days 0 and 1. They therefore received a total of 100 ug MPL. The control group received only saline. All mice were challenged on day 2 with 5 LD50 's of E. coli 055B5 organisms, also injected ip. All control animals died, whereas all treated animals (10/10) survived.

E. coli 055B5 [4] = assay: Septic endotoxemia: challenge with 30 LD50's of E. coli 055B5 in mice; assay type: in vivo; settings: 25, 25 and 50 ug MPL ip on days 0, 1 and 2; challenge on day 2
Experimental: as §3
In a manner similar to that employed in Example 3, 10 mice were given ip injections on days 0, 1 and 2 of 25, 25 and 50 ug MPL, respectively, corresponding to a total of 100 ug MPL for each mouse. Mice in the control group received only saline. On day 2, all mice received a challenge consisting of 30 LD50 's of E. coli 055B5. This corresponds to an overwhelming challenge dose. No mice in the control group survived, while 50% animals (5/10) in the treatment group survived.

rabbits [5] = settings: Table B, ref (2); cited from earlier work
rabbits [6] = settings: Table B, refs (1), (3); cited from earlier work
[7] = relative to parent endotoxin; cited from earlier work
rabbits [8] = settings: Table B, refs (1), (2); cited from earlier work
[9] = 120 hrs after induction of septicemia

For CCCCCCCCCCCCCC(=O)OC(CCCCCCCCCCC)CC(=O)OC1C(NC(=O)CC(CCCCCCCCCCC)OC(=O)CCCCCCCCCCC)C(OCC2OC(O)C(NC(=O)CC(O)CCCCCCCCCCC)C(OC(=O)CC(O)CCCCCCCCCCC)C2O)OC(CO)C1OP(=O)(O)O (stereo not shown) [MPL, Monophosphoryl Lipid A], the “eggs killed in CELD50 test” value (chick embryos; at any dose, footnote to Table A) was “No eggs killed at any dose”, the CELD50 (chick embryos; chick embryos at 10 days of age, survivors at 24 hours) was greater than 20 µg and the “toxicity in CELD50 assay, in words” value (chick embryos; text conclusion from Table A) was “essentially no toxicity”. For the same compound, the “Phosphorous Content” value (Phosphorous content) was 1.8%, the “effect on onset of septicemia, in words” value (septicemia) was “inhibits the onset of septicemia” and the “% Survival” value (septicemia; [9]) was 71%. For the same compound, the Dead/Total (septicemia; [9]) was 4/14, the “mice dying at the highest endotoxin dose” value ([1]; 2.5 mg endotoxin day 3, 8 mice per dose level) was 2 mice and the “fold increase in LD50 of endotoxin following treatment” value ([1]; endotoxin ip day 3) was 4 to 5 fold. The “LD50 of endotoxin in pre-treated mice” value [2] was 1.16 mg, the “increase (factor) in LD50 of endotoxin” value [2] was roughly 5 factor and the symptoms of endotoxemia [2] was “did not show any of the usual symptoms of endotoxemia”. For the same compound, the treated animals survived (E. coli 055B5 [3]) was 10/10, the “animals survived in treatment group” value (E. coli 055B5 [4]) was 5/10 and the “survival, % of animals in treatment group” value (E. coli 055B5 [4]) was 50%. For the same compound, the LD50 in rabbits (rabbits [5]) was > 8,000 mcg/kg, the “Local Shwartzman Reaction in rabbits (area of hemorrhagic lesion)” value (rabbits [6]) was less than 10 mm^2 and the “toxicity in all of the Table B assays, in words” value [7] was “only negligible toxicity”. The “Pyrogenicity in rabbits (difference between basic and maximal body temperature)” value (rabbits [8]) was 0 °C.
